From US20220249441A1, “Homodimeric Tobramycin Adjuvant Repurposes Novobiocin as an Effective Antibacterial Agent Against Gram-Negative Bacteria” (priority 2019, published 2022)

Tests used:
P. aeruginosa = test: Checkerboard assay (antibiotic + adjuvant combination MIC); assay type: cell-based, Pseudomonas aeruginosa; conditions: compound at 8 μM
Experimental: Antimicrobial Susceptibility Assay. The in vitro antimicrobial activity of all compounds/antibiotics against a panel of bacteria was evaluated by microbroth dilution method in accordance with the Clinical and Laboratory Standards Institute (CLSI) guidelines (using ATCC strains as quality control strains) (54). Overnight grown bacterial cultures were diluted in saline to achieve a 0.5 McFarland turbidity, followed by 1:50 dilution in Mueller-Hinton broth (MHB) for inoculation to a final concentration of approximately 5×10^5 CFU/mL. […] The lowest concentration that prevented the visible growth of bacteria was defined as the MIC for each antimicrobial agent. The broth with or without bacterial cells was used as positive or negative control, respectively.
Checkerboard Assay. Combination studies with different antibiotics were performed in 96-well plates as previously described (19). Briefly, the antibiotic of interest was serially diluted in MHB along the abscissa while the adjuvant (tobramycin homodimer) was serially diluted in MHB along the ordinate. This creates a 10×7 matrices wherein each well consists of a combination of different antibiotic and adjuvant concentrations. Overnight grown bacterial cultures were diluted in saline to achieve a 0.5 McFarland turbidity, followed by 1:50 dilution in Mueller-Hinton broth (MHB) for inoculation to a final concentration of approximately 5×10^5 CFU/mL. […] MIC was recorded as wells with the lowest concentration of drugs with no bacterial growth. The fractional inhibitory concentration (FIC) for each antibiotic was calculated by dividing the MIC of the antibiotic in the presence of adjuvant by the MIC of the antibiotic alone. Similarly, the FIC of adjuvant was calculated by dividing the MIC of the adjuvant in the presence of antibiotic by the MIC of the adjuvant alone. FIC index is the sum of both FICs. FIC indices of ≤0.5 were deemed synergistic; >0.5-4, no interaction; and >4, antagonistic.

[1] = test system: P. aeruginosa PAO1 and efflux deficient mutants, MDR/XDR isolates; test: microbe, parasite or virus in culture; assay type: cell-based, Pseudomonas aeruginosa
Experimental: Antimicrobial Susceptibility Assay. The in vitro antimicrobial activity of all compounds/antibiotics against a panel of bacteria was evaluated by microbroth dilution method in accordance with the Clinical and Laboratory Standards Institute (CLSI) guidelines (using ATCC strains as quality control strains) (54). […] The broth with or without bacterial cells was used as positive or negative control, respectively.

**Q.** For `NC[C@H]1O[C@H](O[C@H]2[C@H](OCCCCc3cn(CCCCO[C@@H]4[C@@H](O[C@H]5O[C@H](CO)[C@@H](O)[C@H](N)[C@H]5O)[C@H](N)C[C@H](N)[C@H]4O[C@H]4O[C@H](CN)[C@@H](O)C[C@H]4N)nn3)[C@@H](O[C@H]3O[C@H](CO)[C@@H](O)[C@H](N)[C@H]3O)[C@H](N)C[C@@H]2N)[C@H](N)C[C@@H]1O.O=C(O)C(F)(F)F.O=C(O)C(F)(F)F.O=C(O)C(F)(F)F.O=C(O)C(F)(F)F.O=C(O)C(F)(F)F.O=C(O)C(F)(F)F.O=C(O)C(F)(F)F.O=C(O)C(F)(F)F.O=C(O)C(F)(F)F.O=C(O)C(F)(F)F` [Compound 23, Tobramycin homodimer], which MIC of Aztreonam + compound (P. aeruginosa; P. aeruginosa PAO1) is on record?
**A.** 0.25 µg/mL

**Q.** What about the MIC of Ceftazidime + compound (P. aeruginosa; P. aeruginosa PAO1) of the same compound?
**A.** 0.25 µg/mL

**Q.** What about the MIC of Imipenem + compound (P. aeruginosa; P. aeruginosa PAO1) of the same compound?
**A.** 1 µg/mL

**Q.** What about the MIC of Piperacillin + compound (P. aeruginosa; P. aeruginosa PAO1) of the same compound?
**A.** 0.5 µg/mL

**Q.** What about the MIC of ATM in the presence of compound (P. aeruginosa; PA 259-96918) of the same compound?
**A.** 8 µg/mL

**Q.** And the MIC of CAZ in the presence of compound (P. aeruginosa; PA 259-96918)?
**A.** 128 µg/mL

**Q.** And the MIC of IPM in the presence of compound (P. aeruginosa; PA 259-96918)?
**A.** 32 µg/mL

**Q.** What about the MIC of ATM in the presence of compound (P. aeruginosa; PA 260-97103) of the same compound?
**A.** 16 µg/mL

**Q.** What about the MIC of CAZ in the presence of compound (P. aeruginosa; PA 260-97103) of the same compound?
**A.** 8 µg/mL

**Q.** And the MIC of IPM in the presence of compound (P. aeruginosa; PA 260-97103)?
**A.** 16 µg/mL

**Q.** What about the MIC of ATM in the presence of compound (P. aeruginosa; PA 262-101856) of the same compound?
**A.** 8 µg/mL

**Q.** And the MIC of CAZ in the presence of compound (P. aeruginosa; PA 262-101856)?
**A.** 2 µg/mL

**Q.** What about the MIC of IPM in the presence of compound (P. aeruginosa; PA 262-101856) of the same compound?
**A.** 2 µg/mL

**Q.** And the MIC of ATM in the presence of compound (P. aeruginosa; PA 264-104354)?
**A.** 8 µg/mL

**Q.** And the MIC of CAZ in the presence of compound (P. aeruginosa; PA 264-104354)?
**A.** 32 µg/mL

**Q.** And the MIC of IPM in the presence of compound (P. aeruginosa; PA 264-104354)?
**A.** 4 µg/mL

**Q.** And the MIC of ATM in the presence of compound (P. aeruginosa; PA 86052)?
**A.** 8 µg/mL

**Q.** What about the MIC of CAZ in the presence of compound (P. aeruginosa; PA 86052) of the same compound?
**A.** 64 µg/mL

**Q.** And the MIC of IPM in the presence of compound (P. aeruginosa; PA 86052)?
**A.** 16 µg/mL

**Q.** What about the MIC of ATM in the presence of compound (P. aeruginosa; PA 88949) of the same compound?
**A.** 32 µg/mL

**Q.** What about the MIC of CAZ in the presence of compound (P. aeruginosa; PA 88949) of the same compound?
**A.** 16 µg/mL

**Q.** And the MIC of IPM in the presence of compound (P. aeruginosa; PA 88949)?
**A.** 4 µg/mL

**Q.** What about the MIC of ATM in the presence of compound (P. aeruginosa; PA 91433) of the same compound?
**A.** 4 µg/mL

**Q.** What about the MIC of CAZ in the presence of compound (P. aeruginosa; PA 91433) of the same compound?
**A.** 1 µg/mL

**Q.** What about the MIC of IPM in the presence of compound (P. aeruginosa; PA 91433) of the same compound?
**A.** 4 µg/mL

**Q.** And the MIC of ATM in the presence of compound (P. aeruginosa; PA 100036)?
**A.** 2 µg/mL

**Q.** What about the MIC of CAZ in the presence of compound (P. aeruginosa; PA 100036) of the same compound?
**A.** 2 µg/mL

**Q.** What about the MIC of IPM in the presence of compound (P. aeruginosa; PA 100036) of the same compound?
**A.** 4 µg/mL

**Q.** What about the MIC of ATM in the presence of compound (P. aeruginosa; PA 101243) of the same compound?
**A.** 16 µg/mL

**Q.** And the MIC of CAZ in the presence of compound (P. aeruginosa; PA 101243)?
**A.** 64 µg/mL

**Q.** What about the MIC of IPM in the presence of compound (P. aeruginosa; PA 101243) of the same compound?
**A.** 8 µg/mL

**Q.** What about the MIC of ATM in the presence of compound (P. aeruginosa; PA 101885) of the same compound?
**A.** 4 µg/mL

**Q.** What about the MIC of CAZ in the presence of compound (P. aeruginosa; PA 101885) of the same compound?
**A.** 2 µg/mL

**Q.** What about the MIC of IPM in the presence of compound (P. aeruginosa; PA 101885) of the same compound?
**A.** 4 µg/mL

**Q.** What about the MIC of ATM in the presence of compound (P. aeruginosa; PA 107092) of the same compound?
**A.** 16 µg/mL

**Q.** What about the MIC of CAZ in the presence of compound (P. aeruginosa; PA 107092) of the same compound?
**A.** 32 µg/mL

**Q.** And the MIC of IPM in the presence of compound (P. aeruginosa; PA 107092)?
**A.** 16 µg/mL

**Q.** And the MIC of ATM in the presence of compound (P. aeruginosa; PA 108590)?
**A.** 8 µg/mL

**Q.** What about the MIC of CAZ in the presence of compound (P. aeruginosa; PA 108590) of the same compound?
**A.** 8 µg/mL

**Q.** What about the MIC of IPM in the presence of compound (P. aeruginosa; PA 108590) of the same compound?
**A.** 4 µg/mL

**Q.** And the MIC of ATM in the presence of compound (P. aeruginosa; PA 109084)?
**A.** 8 µg/mL

**Q.** What about the MIC of CAZ in the presence of compound (P. aeruginosa; PA 109084) of the same compound?
**A.** 32 µg/mL

**Q.** And the MIC of IPM in the presence of compound (P. aeruginosa; PA 109084)?
**A.** 8 µg/mL

**Q.** And the MIC of ATM in the presence of compound (P. aeruginosa; PA 114228)?
**A.** 4 µg/mL

**Q.** And the MIC of CAZ in the presence of compound (P. aeruginosa; PA 114228)?
**A.** 1 µg/mL

**Q.** And the MIC of IPM in the presence of compound (P. aeruginosa; PA 114228)?
**A.** 0.5 µg/mL

**Q.** And the MIC of ATM in the presence of compound (P. aeruginosa; PA O200 (efflux-deficient))?
**A.** 0.03 µg/mL

**Q.** And the MIC of CAZ in the presence of compound (P. aeruginosa; PA O200 (efflux-deficient))?
**A.** 0.13 µg/mL

**Q.** And the MIC of IPM in the presence of compound (P. aeruginosa; PA O200 (efflux-deficient))?
**A.** 1 µg/mL

**Q.** What about the MIC of ATM in the presence of compound (P. aeruginosa; PA O750 (efflux-deficient)) of the same compound?
**A.** 0.06 µg/mL

**Q.** And the MIC of CAZ in the presence of compound (P. aeruginosa; PA O750 (efflux-deficient))?
**A.** 0.06 µg/mL

**Q.** What about the MIC of IPM in the presence of compound (P. aeruginosa; PA O750 (efflux-deficient)) of the same compound?
**A.** 1 µg/mL

**Q.** What about the MIC of ATM in the presence of compound (P. aeruginosa; PAO1) of the same compound?
**A.** 0.25 µg/mL

**Q.** And the MIC of CAZ in the presence of compound (P. aeruginosa; PAO1)?
**A.** 0.25 µg/mL

**Q.** And the MIC of IPM in the presence of compound (P. aeruginosa; PAO1)?
**A.** 1 µg/mL

**Q.** What about the “resistant isolates in which CLSI breakpoint was attained for aztreonam” value (P. aeruginosa) of the same compound?
**A.** eleven out of thirteen

**Q.** And the “resistant isolates in which CLSI breakpoint was attained for ceftazidime” value (P. aeruginosa)?
**A.** four out of eleven

**Q.** What about the “resistant isolates in which CLSI breakpoint was attained for imipenem” value (P. aeruginosa) of the same compound?
**A.** five out of seventeen

**Q.** What about the MIC ([1]; PAO1 (wild-type)) of the same compound?
**A.** >128 µg/mL

**Q.** And the MIC ([1]; PAO200 (first column so headed))?
**A.** >128 µg/mL

**Q.** And the MIC ([1]; PAO200 (second column so headed))?
**A.** >128 µg/mL
